{
  "source": "patent US20250353827A1",
  "about": "“INDOLINE DERIVATIVES AS SEROTONERGIC AGENTS USEFUL FOR THE TREATMENT OF DISORDERS RELATED THERETO” (MINDSET PHARMA INC., priority 2022, published 2025)",
  "key": {"[1]": {"test": "Liver microsomes stability, human", "procedure": "(§1) The objective of this study was to estimate in vitro metabolic stability of representative compounds of the application in pooled human and male mouse liver microsomes. The concentrations of parent compounds in reaction systems were evaluated by LC-MS/MS for estimating the stability in pooled human and male mouse liver microsomes. The in vitro intrinsic clearances of test compounds were determined as well.\n(§2) A master solution in the “Incubation Plate” containing phosphate buffer, ultra-pure H2O, MgCl2 solution and liver microsomes was made according to Table 3. The mixture was pre-warmed at 37° C. water bath for 5 minutes.\n(§3) 40 μL of 10 mM NADPH solution was added to each well. The final concentration of NADPH was 1 mM. The negative control samples were prepared by replacing NADPH with 40 μL of ultra-pure H2O. Samples were prepared in duplicate. Negative controls were prepared in singlet.\n(§4) The reaction was started with the addition of 4 μL of 200 μM test compounds or control compounds to each master solution to get the final concentration of 2 μM. This study was performed in duplicate.\n(§5) Aliquots of 50 μL were taken from the reaction solution at 0, 15, 30, 45 and 60 minutes. The reaction solutions were stopped by the addition of 4 volumes of cold methanol with IS (100 nM alprazolam, 200 nM imipramine, 200 nM labetalol and 2 μM ketoprofen). Samples were centrifuged at 3,220 g for 40 minutes. Aliquot of 90 μL of the supernatant was mixed with 90 μL of ultra-pure H2O and then was used for LC-MS/MS analysis.\n(§6) LC/MS analysis was performed for all samples from this study using a Shimadzu liquid chromatograph separation system equipped with degasser DGU-20A5R; solvent delivery unit LC-30AD; system controller SIL-30AC; column oven CTO-30A; CTC Analytics HTC PAL System. Mass spectrometric analysis was performed using a Triple Quad™ 5500 instrument.\n(§7) All calculations were carried out using Microsoft Excel. Peak areas were determined from extracted ion chromatograms. The slope value, k, was determined by linear regression of the natural logarithm of the remaining percentage of the parent drug vs. incubation time curve.\n(§8) The in vitro half-life (in vitro t1/2) was determined from the slope value:\n(§9) Conversion of the in vitro t1/2 (min) into the in vitro intrinsic clearance (in vitro CLint, in μL/min/mg proteins) was done using the following equation (mean of duplicate determinations): […]"}, "[2]": {"test": "Liver microsomes stability, rat", "details": "rat"}, "[3]": {"biological_target": "T1, human 5-HT2A (h5-HT2A) receptor (Homo sapiens, UniProt P28223)", "T1 construct": "expressed in transfected cells; cultured under G418 and hygromycin B selection", "T1 sequence (P28223 whole entry)": "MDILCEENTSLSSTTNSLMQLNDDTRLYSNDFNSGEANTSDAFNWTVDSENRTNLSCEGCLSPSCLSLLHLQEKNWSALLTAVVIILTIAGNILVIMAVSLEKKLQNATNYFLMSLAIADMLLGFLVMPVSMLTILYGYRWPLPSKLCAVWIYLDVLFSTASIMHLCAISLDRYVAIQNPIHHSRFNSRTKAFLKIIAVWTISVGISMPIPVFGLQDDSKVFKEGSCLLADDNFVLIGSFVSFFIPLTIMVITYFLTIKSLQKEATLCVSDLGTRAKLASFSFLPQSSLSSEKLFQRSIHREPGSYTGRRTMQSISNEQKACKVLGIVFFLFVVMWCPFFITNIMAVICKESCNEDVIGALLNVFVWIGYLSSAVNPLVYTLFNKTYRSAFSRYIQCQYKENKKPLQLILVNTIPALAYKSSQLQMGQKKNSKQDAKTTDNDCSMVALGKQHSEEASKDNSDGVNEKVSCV", "test": "FLIPR assay, human 5-HT2A receptor under agonist mode", "format": "cell-based", "details": "5-HT2A (FLIPR)", "procedure": "I. Assessment of the Effect of Exemplary Compounds of Formula I Targeting on Human 5-HT2A (h5-HT2A) Receptor Under Agonist Mode\n• 1. Cells were cultured in cell culture medium (DMEM containing 10% FBS, 1×penicillin-streptomycin 300 μg/ml G418 and 100 μg/ml hygromycin B) at 37° C., 5% (v/v) CO2. • 2. One day before the assays, the cells were detached using TrypLE™ Express and cells were counted using cell counter. Only cells with >85% viability were used for the assay. • 3. 20000 cells/well were seeded in 30 μl/well culture medium to a 384-well cell plate and cells were incubated overnight at 37° C., 5% (v/v) CO2. • 4. On the assay day, 2×dye solution was prepared following the manual of the FLIPR® Calcium 6 Assay Kit: i. The dye was diluted with assay buffer (20 mM HEPES in 1× HBSS, PH7.4); ii. Probenecid was added to the final concentration of 5 mM; iii. Vortex vigorously for 1-2 minutes. • 5. Medium was removed from cell plate by flicking the cell plate on towel papers. • 6. 10 μl of assay buffer and 10 μl of 2×dye solution was added to each well of the cell plate. • 7. The cell plate was placed on plate shaker, the plate was agitated at 600 rpm for 2 minutes. The plate was incubated at 37° C. for 2 hours followed by additional 15-minute incubation at 25° C. • 8. 3×compound in assay buffer was prepared: a. Reference compounds were diluted to required concentration with DMSO. The compounds were added to a 384-well compound plate; b. Serial dilutions were performed; c. 10 mM test compounds were added to the compound plate, and 3-fold serial dilutions were performed. d. Transfer 60 nl/well of compounds from source plate to a 384-well compound plate (Corning, 3657) by using an Echo; e. Add 20 μl/well assay buffer to the compound plate; f. Mix the plate on plate shaker for 2 mins; • 9. The cell plate, compound plate and tips were put into FLIPR, 10 μl of 3× compound was transferred to the cell plate per well with FLIPR.\n• i. The normalized fluorescence reading (RFU) was calculated as shown below, where Fmax and Fmin stand for maximum and minimum of calcium signal during defined time window: RFU=Fmax−Fmin. • ii. Calculate the percentage activation using following equation:\n[formula] • Iii. Calculate EC50 by fitting % activation against log of compound concentrations with Hill equation using XLfit.\nExemplary compounds of Formula I were evaluated functionally using FLIPR assay for their effect on h5-HT2A receptor under agonist mode."}, "[4]": {"test": "Liver microsomes stability, mouse", "procedure": "as §1, §2, §3, §4, §5, §6, §7, §8, §9"}, "[5]": {"system": "Male, C57BL/6J mice", "test": "Mouse head twitch", "format": "in vivo", "details": "for head twitches (mean): counted over 1 hr, male C57BL/6J mice", "procedure": "The effect of different doses of representative compounds of Formula I were evaluated on head-twitch response (HTR) and other behavioural responses as behavior-based models of psychedelic activity.\nMale, C57BL/6J mice (body weight range 20-30 g) were dosed with the appropriate dose of test article, and following a 1-minute pre-treatment time, placed in individual observation chambers. Animals were visually assessed for the incidence head twitches continuously over a 1 hr period. Head twitches were defined as a rapid jerk of the head which was not elicited by an external tactile stimulus (Come and Pickering, Psychopharmacologia, 1967, 11(1): 65-78). Each head twitch was individually counted by a trained observer, and the data was expressed as the mean±SEM of 6-10 mice per group. Mice were used in a single experiment only.\nThe head twitch response of exemplary compound II-1 (1-30 mg/kg SC) was compared to 5-MeO DMT and psilocybin (FIG. 1, Table 6)."}},
  "note": "pEC50: −log10 of the molar value. Where “and” joins values, the source holds several entries; their conditions need not be identical. Identical values can stand only once.",
  "data": [
    {"smiles": "COc1ccc2c(c1)C(CCN(C)C)CN2", "note": "(centres unmarked) [II-1, 2-(5-Methoxyindolin-3-yl)-N,N-dimethylethan-1-amine]", "values": [
      {"measurement": "Predicted hepatic CL", "setting": "[1]; human liver microsomes", "value": 14.13, "unit": "mL/min/kg"},
      {"measurement": "Remaining Percentage", "setting": "[1]; human, With NADPH, 0 min", "value": 100.00, "unit": "%"},
      {"measurement": "Remaining Percentage", "setting": "[1]; human, With NADPH, 30 min", "value": 65.37, "unit": "%"},
      {"measurement": "Remaining Percentage", "setting": "[1]; human, With NADPH, 60 min", "value": 34.47, "unit": "%"},
      {"measurement": "Remaining Percentage", "setting": "[1]; human, Without NADPH, 0 min", "value": 100.00, "unit": "%"},
      {"measurement": "Remaining Percentage", "setting": "[1]; human, Without NADPH, 30 min", "value": 89.91, "unit": "%"},
      {"measurement": "Remaining Percentage", "setting": "[1]; human, Without NADPH, 60 min", "value": 83.49, "unit": "%"},
      {"measurement": "CLint scaled at 2 μM", "setting": "[1]; human, pooled liver microsomes", "value": 44.5, "unit": "mL/min/kg"},
      {"measurement": "half-life at 2 μM", "setting": "[1]; human, pooled liver microsomes", "value": 39, "unit": "min"},
      {"measurement": "microsomal CLint at 2 μM", "setting": "[1]; human, pooled liver microsomes", "value": 35.5, "unit": "µL/min/mg"},
      {"measurement": "Remaining Percentage", "setting": "[2]; With NADPH, 0 min", "value": 100.00, "unit": "%"},
      {"measurement": "Remaining Percentage", "setting": "[2]; With NADPH, 30 min", "value": 20.42, "unit": "%"},
      {"measurement": "Remaining Percentage", "setting": "[2]; With NADPH, 60 min", "value": 5.99, "unit": "%"},
      {"measurement": "Remaining Percentage", "setting": "[2]; Without NADPH, 0 min", "value": 100.00, "unit": "%"},
      {"measurement": "Remaining Percentage", "setting": "[2]; Without NADPH, 30 min", "value": 86.92, "unit": "%"},
      {"measurement": "Remaining Percentage", "setting": "[2]; Without NADPH, 60 min", "value": 87.15, "unit": "%"},
      {"measurement": "CLint scaled at 2 μM", "setting": "[2]; liver microsomes", "value": 168, "unit": "mL/min/kg"},
      {"measurement": "Predicted hepatic CL", "setting": "[2]; liver microsomes", "value": 41.56, "unit": "mL/min/kg"},
      {"measurement": "half-life at 2 μM", "setting": "[2]; liver microsomes", "value": 14.8, "unit": "min"},
      {"measurement": "microsomal CLint at 2 μM", "setting": "[2]; liver microsomes", "value": 93.8, "unit": "µL/min/mg"},
      {"measurement": "RFU@10 μM", "setting": "[3]; 10 μM, RFU=Fmax−Fmin", "value": "1813 and 1180"},
      {"measurement": "pEC50", "setting": "[3]; read-out: EC50", "value": "6.69 and 6.56"},
      {"measurement": "CLint scaled at 2 μM", "setting": "[4]; male, mouse, microsomes", "value": 368, "unit": "mL/min/kg"},
      {"measurement": "half-life at 2 μM", "setting": "[4]; male, mouse, microsomes", "value": 16.5, "unit": "min"},
      {"measurement": "microsomal CLint at 2 μM", "setting": "[4]; male, mouse, microsomes", "value": 84.2, "unit": "µL/min/mg"},
      {"measurement": "Predicted hepatic CL", "setting": "[4]; mouse liver microsomes", "value": 72.33, "unit": "mL/min/kg"},
      {"measurement": "Remaining Percentage", "setting": "[4]; mouse, With NADPH, 0 min", "value": 100.00, "unit": "%"},
      {"measurement": "Remaining Percentage", "setting": "[4]; mouse, With NADPH, 30 min", "value": 31.98, "unit": "%"},
      {"measurement": "Remaining Percentage", "setting": "[4]; mouse, With NADPH, 60 min", "value": 8.00, "unit": "%"},
      {"measurement": "Remaining Percentage", "setting": "[4]; mouse, Without NADPH, 0 min", "value": 100.00, "unit": "%"},
      {"measurement": "Remaining Percentage", "setting": "[4]; mouse, Without NADPH, 30 min", "value": 117.83, "unit": "%"},
      {"measurement": "Remaining Percentage", "setting": "[4]; mouse, Without NADPH, 60 min", "value": 113.85, "unit": "%"},
      {"measurement": "head twitches (mean)", "setting": "[5]; 0.3 mg/kg SC", "value": 3.2},
      {"measurement": "head twitches (mean)", "setting": "[5]; 1 mg/kg SC", "value": 3.8},
      {"measurement": "head twitches (mean)", "setting": "[5]; 3 mg/kg SC", "value": 3.6},
      {"measurement": "head twitches (mean)", "setting": "[5]; 10 mg/kg SC", "value": 2.3},
      {"measurement": "mice with some 5-HT syndrome associated behaviours", "setting": "[5]; 30 mg/kg SC, 2/5 mice", "value": 40, "unit": "%"},
      {"measurement": "head twitches (mean)", "setting": "[5]; 30 mg/kg SC", "value": 4.2},
      {"measurement": "head twitch response (in words)", "setting": "[5]; SC, dose range as in the sentence", "value": "only a modest head twitch response"},
      {"measurement": "other behavioural signs (locomotion, core body temperature, 5-HT syndrome) in words", "setting": "[5]; SC, psilocybin 3 and 10 mg/kg, 5-MeO DMT 3-30 mg/kg, II-1 0.3-30 mg/kg", "value": "No overt signs of hypolocomotion or 5-HT syndrome"},
      {"measurement": "peak head twitch response", "setting": "[5]; at 30 mg/kg SC, mean±SEM", "value": "4.2±0.7", "unit": "twitches"}
    ]}
  ]
}
